Experimental findings from patent publication US8158577B2, “Modulation of cartilage homeostasis by active domains of cell binding extracellular matrix molecules” (priority 2004, dated 2012) are described below.

The subject of assay [1] is K105 cells. Briefly: Effect on K105 cells already adherent to chondroadherin, light microscopy time study (FIG. 7, 9, 10). Particulars: for spreading and aggregation or detaching of k105 cells adherent to chondroadherin (FIG. 10): peptide, anti β1 antibody or 5 mM EDTA added after 30 min, light microscopy after 1 and 3 hours; for spreading, migration and aggregation of k105 cells adherent to chondroadherin: peptide 250 μg/ml added after 30 min adhesion, light microscopy after 1, 3 and 20 hours. Format: cell-based, human. The method, then: (§1) To test cell binding, the chondrosarcoma cells or bovine chondrocytes were suspended in PBS containing 0.1% BSA, 25 U/ml collagenase and added to the wells (50,000/well), in the absence or presence of various peptide pools or the synthetic peptides (200, 100, 50, 25, 12.5 μg/ml). Non-adherent cells were removed after 1 hour and adhesion was determined by measuring lysosomal N-acetylglucosaminidase (12). Adhesion and spreading was visualized by light microscopy. In the time studies, k105 cells were allowed to adhere for 30 minutes, unbound cells were removed and medium without serum supplemented with or without peptides (250 μg/ml), β1 integrin antibody (clone P4C10, Gibco BRL), EDTA (5 mM) was added. Cell morphology was visualized by light microscopy after 1, 3 and 20 hours.
Tissue culture dishes were coated with 5 μg/ml chondroadherin expressed in E. coli and blocked for non-specific binding with BSA. The k105 cells were suspended in PBS containing 0.1% BSA, and added to the wells (50,000/well). Nonadherent cells were removed after 30 min by washing, plain medium without serum with or without peptides (250 μg/ml) was added and bound cells were visualized by light microscopy after 1, 3 and 20 hours.
Tissue culture dishes were coated with 5 μg/ml chondroadherin expressed in E. coli and blocked for non-specific binding with BSA. The cells were suspended in PBS containing 0.1% BSA, and added to the wells (50,000/well). Nonadherent cells were removed after 30 min by washing, plain medium without serum with or without peptides (250 μg/ml) was added and bound cells were visualized by light microscopy after 1, 3 and 20 hours. […] The activity for integrin binding is located in the C-terminal eight residues of the sequence involving the WLEAK (SEQ ID No. 1) sequence.
Tissue culture dishes were coated with 5 μg/ml chondroadherin expressed in E. coli and blocked for non-specific binding with BSA. The k105 cells were suspended in PBS containing 0.1% BSA, and added to the wells (50,000/well). Nonadherent cells were removed after 30 min by washing, peptide, anti β1 antibody, 5 mM EDTA or plain medium without serum was added and bound cells were visualized by light microscopy after 1 and 3 hours.

The subject of assay [2] is K105 cells. The assay is described as follows: Adhesion of K105 cells to chondroadherin in the presence of synthetic peptide (FIG. 3, 5A-5B, 13). Particulars: 1 hour at 37° C.; for adhesion of k105 cells to chondroadherin in the presence of peptide: peptide 200, 100, 50, 25, 12.5 μg/ml. Format: cell-based, human. On the procedure: Human cells (K9) originating from a human chondrosarcoma were a kind gift from Drs. Sven Inerot and Anders Lindahl, The Salgrenska University Hospital Gothenburg, Sweden. The K9 cells were cultured in Dulbeccos Modified Eagle Medium: Nutrient Mixture F12 (DMEM/F12 1:1) with GLUTAMAX I, supplemented with 10% fetal calf serum, 25 μg/ml ascorbic acid, 50 IU of penicillin and 50 μg/ml streptomycin (Life Technologies, Inc.). A different human cells line (K105) originating from a human chondrosarcoma was a kind gift from Dr. Sven Inerot, The Salgrenska University Hospital, Gothenburg, Sweden. The K105 cells were cultured in a mix of 40% Dulbeccos Modified Eagle Medium, 40% Minimum Essential Media (MEM) alpha Medium, 10% Nutrient Mixture F1 supplemented with 100 nM hydrocortisone, 100 ng/ml insulin, 10% fetal calf serum, 25 μg/ml ascorbic acid, 50 IU of penicillin and 50 μg/ml streptomycin (Life Technologies, Inc.). To harvest cells, culture dishes were rinsed three times with Ca^2+/Mg^2+-free PBS and the cells were incubated with 0.5% trypsin and 1 mM EDTA for 5 min. Detached cells were suspended in PBS containing 1 mg/ml trypsin inhibitor (Sigma) and then washed in PBS. To remove membrane-bound collagens the cells were treated with collagenase 100 U/ml (CLSPA; Worthington Biochemical Corp., Lakewood, N.J.) in PBS, 30 min. 37° C. and then washed in PBS.
(§2) Tissue culture 48-wells dishes (Nunclon, Nunc, Denmark) were coated overnight with 5 μg/ml chondroadherin in 4M Guanidine-HCl, 50 mM sodium acetate, pH 5.8, or for native protein in PBS. Alternatively coating was with 5 μg/ml collagen type II in PBS followed by after-coating with 0.5% BSA in PBS for 3 hours. Collagen type II was isolated from bovine nasal cartilage by pepsin digestion (11). Bacterially expressed chondroadherin was isolated as described above. Recombinant chondroadherin expressed in EBNA cell was cloned and purified as described elsewhere (8).
as §1
Study design: Tissue culture dishes (48-wells) were coated with 5 μg/ml chondroadherin expressed in E. coli and blocked for non-specific binding with BSA. […] were suspended in PBS containing 0.1% BSA, 25 U/ml collagenase and added to the wells (50,000/well) in the presence of synthetic peptide to be tested and allowed to adhere for 1 hour at 37° C. Nonadherent cells were removed by washing, and adhesion was determined by analyzing lysosomal hexosaminidase.
A 12-mer peptide (1947.01) plus an N-terminal cysteine (CQLRGLRRWLEAK) (SEQ ID NO. 3) representing the candidate sequence identified by mass spectrometry were synthesized and its ability to inhibit cell adhesion was determined. Tissue culture dishes were coated with 5 μg/ml chondroadherin expressed in E. coli and blocked for non-specific binding with BSA. The cells were suspended in PBS containing 0.1% BSA, 25 U/ml collagenase and added to the wells (50,000/well) in the presence of synthetic peptide (200, 100, 50, 25, 12.5 μg/ml) and allowed to adhere for 1 hour at 37° C. Nonadherent cells were removed by washing, and adhesion was determined by analyzing lysosomal hexosaminidase. […]

Assay [3] concerns K105 cells. The assay is described as follows: Adhesion of K105 cells to collagen type II in the presence of synthetic peptide (FIG. 5C-5D). Particulars: peptide 250 μg/ml, 1 hour at 37° C. In kind it is cell-based, human. On the procedure: as §2
(§3) To test cell binding, the chondrosarcoma cells or bovine chondrocytes were suspended in PBS containing 0.1% BSA, 25 U/ml collagenase and added to the wells (50,000/well), in the absence or presence of various peptide pools or the synthetic peptides (200, 100, 50, 25, 12.5 μg/ml). Non-adherent cells were removed after 1 hour and adhesion was determined by measuring lysosomal N-acetylglucosaminidase (12). Adhesion and spreading was visualized by light microscopy. […]
Tissue culture dishes were coated with 5 μg/ml chondroadherin expressed in E. coli or collagen type II and blocked for non-specific binding with BSA. […] Spreading was visualized by light microscopy, and adhesion was determined by analyzing lysosomal hexosaminidase. Adhesion is expressed as number of cells where the data represent the average of two wells. […]

Assay [4] deals with K105 cells. The assay is described as follows: Adhesion of K105 cells to the coated cell binding peptides (FIG. 8). Format: cell-based, human. The method, then: Tissue culture dishes were coated with 33 μg/ml (20 µM) peptide solution. The cells (50,000/well) were suspended in PBS containing 0.1% BSA, 25 U/ml collagenase and added to the wells in the presence or absence of synthetic peptide (250 μg/ml) and allowed to adhere for 1 hour at 37° C. Nonadherent cells were removed by washing. Spreading was visualized by light microscopy.

In assay [5] the test system is bovine chondrocytes. The assay is described as follows: Adhesion of bovine chondrocytes to human chondroadherin with or without cell binding peptides (FIG. 6). Format: cell-based. Particulars: peptide 250 μg/ml, 1 hour at 37° C., 100,000 cells/well. The method, then: Bovine chondrocytes were isolated by collagenase (CLS1; Worthington Biochemical Corp., Lakewood, N.J.) digestion of articular cartilage from 4-6 month old calves as described (10). Briefly, cartilage slices were digested for 16 hours with collagenase in EBSS (Earle's balanced salt solution, GIBCO BRL Gaithersburg, Md.). The cells were filtered through a 100 μm nylon filter, washed three times in PBS containing 0.2% BSA (SERVA).
as §3
Tissue culture dishes were coated with 5 μg/ml chondroadherin expressed in E. coli or collagen type II and blocked for non-specific binding with BSA. […] Adhesion was determined by analyzing lysosomal hexosaminidase. Adhesion is expressed as number of cells, 100,000 cells/well was seeded. […]

Entries after “also recorded” stand apart in the source; their conditions may differ.

As to `O=C(O)CN(CCN(CC(=O)O)CC(=O)O)CC(=O)O` [EDTA, reference compound], in assay [1], the “spreading and aggregation or detaching of k105 cells adherent to chondroadherin (FIG. 10)” value is reported as “cells detaching”.

For the molecule “Ac-[CQLRGLRRWLEAKASRPDATC]-NH2 (Ac-CQLRGLRRWLEAKASRPDATC-NH2; also: cyclised (brackets), bond type not given here; listed as Homo sapiens) [SEQ ID No. 12]”, the “inhibitory effect on K105 cell adhesion to chondroadherin (Example II, FIG. 13)” value in assay [2] was “inhibitory effect”.

As to “CQLRGLRRWLEAK (N-terminal cysteine; listed as Homo sapiens) [12-mer peptide plus an N-terminal cysteine]”, the “k105 cell adhesion to collagen type II in the presence of peptide” value in assay [3] is “not significantly affected”. For the same molecule, the “adhesion and shape of k105 cells plated on the peptide” value in assay [4] (dishes coated with 33 μg/ml peptide, 1 hour at 37° C.) is “adhere and remain round”. In addition, in assay [4] (peptide in solution 250 μg/ml), the “inhibition of k105 adhesion to the coated peptide by the same peptide in solution” value is reported as “inhibited”. Also, in assay [1], the “spreading, migration and aggregation of k105 cells adherent to chondroadherin” value (from here on “spreading, migration and aggregation”) is “stimulated the cells to form aggregate; also recorded: prevented spreading and induced cells to form aggregate”; the “spreading and aggregation or detaching of k105 cells adherent to chondroadherin (FIG. 10)” value was “prevented spreading and the cells formed aggregate”. Besides, the “bovine chondrocyte adhesion to chondroadherin in the presence of peptide” value in assay [5] is “decreased”. Besides, the “k105 cell adhesion to chondroadherin in the presence of peptide” value in assay [2] (peptide 250 μg/ml) was “decreased”. Also, the “adhesion of k105 cells to chondroadherin in the presence of peptide” value in assay [2] is given as “able to inhibit”. In addition, the “adhesion of k105 cells to chondroadherin in the presence of peptide” value in assay [2] (listed as 12-mer peptide) is listed as “decreased in a dose dependent manner”.

As for “H-LRRWLEAK-OH (listed as Homo sapiens) [SEQ ID No. 2]”, the “spreading, migration and aggregation” value in assay [1] was “prevented spreading and induced cells to form aggregate”.

For the molecule “H-QLRGLRRWLEAK-OH (listed as Homo sapiens) [SEQ ID No. 3]”, the “spreading, migration and aggregation” value in assay [1] was “prevented spreading and induced cells to form aggregates”.

In the case of QLRGLRRW (listed as Homo sapiens), the “spreading, migration and aggregation” value in assay [1] was “no effect”.
